The target of the test is HsClpP (Homo sapiens, UniProt Q16740). As to the kind of experiment: HsClpP enzyme hydrolysis of short peptide substrate AC-WLA-AMC. The note with it: promoting hydrolysis of short peptide substrate by HsClpP, relative to blank control.
Chain of HsClpP (Q16740 57-277): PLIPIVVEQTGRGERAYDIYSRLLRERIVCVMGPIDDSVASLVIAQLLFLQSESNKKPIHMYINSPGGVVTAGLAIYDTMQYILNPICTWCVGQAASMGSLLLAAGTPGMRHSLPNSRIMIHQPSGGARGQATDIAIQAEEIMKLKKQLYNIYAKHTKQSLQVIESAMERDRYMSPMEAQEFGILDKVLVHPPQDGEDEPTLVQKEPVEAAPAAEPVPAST

Description: This study evaluated the regulatory activity of the compounds on HsClpP by examining the hydrolysis effects of HsClpP protein on the AC-WLA-AMC substrate . […] The small molecules and the HsClpP protein solution were added to a flat-bottomed black 96-well plate, with three replicate wells for each group. […] DMSO was used as a negative control instead of small molecules. The multiple of readings at different concentrations against the readings of DMSO group was recorded as an index for evaluation of hydrolysis activity. . . . GraphPad Prism was used to plot the obtained multiple values and calculate the EC50 values.

In the case of `O=c1nc2n(c3c1CN(Cc1ccccc1)CC3(F)F)CCN2Cc1ccco1` [Compound 70, 7-Benzyl-9,9-difluoro-3-(furan-2-ylmethyl)-2,3,6,7,8,9-hexahydroimidazo [1,2-a]pyrido[3,4-e]pyrimidin-5(1H)-one], the “Regulatory efficacy 1 μM” value is “+ (+ indicating that the increased efficacy is less than 50% of the blank control group)” and the “Regulatory efficacy 10 μM” value is listed as “+ +”.
Regarding `Cc1ccc(CN2CCn3c2nc(=O)c2c3C(F)(F)CN(Cc3ccccc3)C2)cc1` [Compound 72, 7-Benzyl-9,9-difluoro-3-(4-methylbenzyl)-2,3,6,7,8,9-hexahydroimidazo[1,2-a]pyrido[3,4-e]pyrimid in-5(1H)-one], the “Regulatory efficacy 1 μM” value is “+ +” and the “Regulatory efficacy 10 μM” value is given as “+ +”.
As for `O=c1nc2n(c3c1CN(Cc1ccccc1)CC3(F)F)CCN2Cc1ccc(C(F)(F)F)cc1` [Compound 73, 7-Benzyl-9,9-difluoro-3-(4-(trifluoromethyl)benzyl)-2,3,6,7,8,9-hexahydroimidazo[1,2-a]pyrido[3,4-e]pyrimidin-5(1H)-one], the “Regulatory efficacy 1 μM” value is on record as “+ +” and the “Regulatory efficacy 10 μM” value is recorded as “+ +”.
Turning to `COc1ccccc1CN1CCn2c1nc(=O)c1c2C(F)(F)CN(Cc2ccccc2)C1` [Compound 74, 7-Benzyl-9,9-difluoro-3-(2-methoxybenzyl)-2,3,6,7,8,9-hexahydroimidazo[1,2-a]pyrido[3,4-e]pyrimidin-5(1H)-one], the “Regulatory efficacy 1 μM” value is “+ +” and the “Regulatory efficacy 10 μM” value is given as “+ +”.
As for `CS(=O)(=O)c1ccc(CN2CCn3c2nc(=O)c2c3C(F)(F)CN(Cc3ccccc3)C2)cc1` [Compound 75, 7-Benzyl-9,9-difluoro-3-(4-(methylsulfonyl)benzyl)-2,3,6,7,8,9-hexahydroimidazo[1,2-a]pyrido[3,4-e]pyrimidin-5(1H)-one], the “Regulatory efficacy 1 μM” value is “+ +” and the “Regulatory efficacy 10 μM” value is listed as “+ +”.
Regarding `O=c1nc2n(c3c1CN(Cc1ccccc1)CC3(F)F)CCN2Cc1ccc(Cl)cc1` [Compound 77, 7-Benzyl-3-(4-chlorobenzyl)-9,9-difluoro-2,3,6,7,8,9-hexahydroimidazo[1,2-a]pyrido[3,4-e]pyrimidi n-5(1H)-one], the “Regulatory efficacy 1 μM” value is listed as “+ +” and the “Regulatory efficacy 10 μM” value is listed as “+ +”.
For the compound `O=c1nc2n(c3c1CN(Cc1ccccc1)CC3(F)F)CCN2Cc1ccc(Br)cc1` [Compound 78, 7-Benzyl-3-(4-bromobenzyl)-9,9-difluoro-2,3,6,7,8,9-hexahydroimidazo[1,2-a]pyrido[3,4-e]pyrimidin-5(1H)-one], the “Regulatory efficacy 1 μM” value was “+ +” and the “Regulatory efficacy 10 μM” value was “+ +”.
For the compound `O=c1nc2n(c3c1CN(Cc1ccccc1)CC3(F)F)CCN2Cc1ccc(Cl)c(Cl)c1` [Compound 79, 7-Benzyl-3-(3,4-dichlorobenzyl)-9,9-difluoro-2,3,6,7,8,9-hexahydroimidazo[1,2-a]pyrido[3,4-e]pyrimidin-5(1H)-one], the “Regulatory efficacy 1 μM” value is “+ +” and the “Regulatory efficacy 10 μM” value is listed as “+ +”.
With `O=c1nc2n(c3c1CN(Cc1ccccc1)CC3(F)F)CCN2Cc1ccc(F)c(F)c1` [Compound 80, 7-Benzyl-3-(3,4-difluorobenzyl)-9,9-difluoro-2,3,6,7,8,9-hexahydroimidazo[1,2-a]pyrido[3,4-e]pyrimidin-5(1H)-one], the “Regulatory efficacy 1 μM” value is recorded as “+ +” and the “Regulatory efficacy 10 μM” value is “+ +”.
In the case of `O=c1nc2n(c3c1CN(Cc1ccccc1)CC3(F)F)CCN2Cc1ccc(F)cc1F` [Compound 81, 7-Benzyl-3-(2,4-difluorobenzyl)-9,9-difluoro-2,3,6,7,8,9-hexahydroimidazo[1,2-a]pyrido[3,4-e]pyrimidin-5(1H)-one], the “Regulatory efficacy 1 μM” value is given as “+ +” and the “Regulatory efficacy 10 μM” value is recorded as “+ +”.

(Values after patent US20240287071A1, “CLASS OF IMIDAZOLIDINOPYRIMIDONE COMPOUNDS AND USE THEREOF IN TREATMENT OF HSCLPP-MEDIATED DISEASES” (SICHUAN UNIVERSITY, priority 2021, published 2024).)
